The record followed here is ChEMBL document CHEMBL1126307, “Conformational studies of muscarone analogues: X-ray analysis and molecular mechanics calculations” (J Med Chem, 1992).

Common to all, as to format: functional
For assay [1], the species on record is Rattus norvegicus. Nature of the assay: Muscarinic potency was measured in rat jejunum. To be noted: for EC50: Rattus norvegicus, Jejunum.
The species named for assay [2] is Rattus norvegicus. Nature of the assay: Muscarinic potency was measured in rat bladder. The settings on record: for EC50: Rattus norvegicus.
For assay [3], the species on record is Cavia porcellus. Nature of the assay: Muscarinic potency was measured in guinea pig atria. The settings on record: for EC50: Cavia porcellus.
Assay [4] is filed under the species Cavia porcellus. The assay is described as follows: Muscarinic potency was measured in guinea pig ileum. To be noted: for EC50: Cavia porcellus, Ileum.
Assay [5] is described as follows: Eudismic ratio was measured.

In the case of `C[C@@H]1O[C@H](C[N+](C)(C)C)CC1=O` [listing 1 of 2 here], the “-Log EC50” value in assay [1] is 7.89; in assay [2], 7.28; in assay [3], 8.62; in assay [4] it was 9.

With `C[C@H]1OC[C@@H](C[N+](C)(C)C)O1` [listing 1 of 2 here], the EC50 (commonly the concentration needed to bring the measured effect to its halfway point) in assay [1] was 0.0263 µM; in assay [2], 0.123 µM; in assay [3], 0.00955 µM; in assay [4] it was 0.00417 µM.

In the case of `C[C@H]1CC[C@@H](C[N+](C)(C)C)O1`, the EC50 in assay [1] is 0.646 µM; in assay [2], 2.4 µM; in assay [3] it was 1.32 µM; in assay [4], 0.135 µM.

For `C[C@@H]1O[C@H](C[N+](C)(C)C)CS1` [listing 1 of 2 here], the EC50 in assay [1] is 0.0282 µM; in assay [2] it was 0.229 µM; in assay [3], 0.0427 µM; in assay [4] it was 0.00589 µM.

As for `C=C1C[C@@H](C[N+](C)(C)C)O[C@H]1C`, the “-Log EC50” value turned out to be 6.78 in assay [1], 6.13 in assay [2], 6.1 in assay [3] and 7.38 in assay [4].

For `C[C@@H]1O[C@H](C[N+](C)(C)C)CC1=O` [listing 2 of 2 here], the ER in assay [5] stood at 3.1.

As for `C[C@@H]1O[C@H](C[N+](C)(C)C)CS1` [listing 2 of 2 here], the ER in assay [5] was found to be 170.

As to `C[C@H]1OC[C@@H](C[N+](C)(C)C)O1` [listing 2 of 2 here], in assay [5], the ER was 59.

Consider `C[C@@H]1O[C@H](C[N+](C)(C)C)CC1O` (mixture of isomers), for which the EC50 is 0.155 µM in assay [1], 0.575 µM in assay [2], 0.0589 µM in assay [3] and 0.0316 µM in assay [4]. In addition, the ER in assay [5] is 331.

As for `C[C@@H]1O[C@H](C[N+](C)(C)C)CS1` (mixture of isomers) [listing 1 of 2 here], the “-Log EC50” value stood at 7.55 in assay [1], 6.64 in assay [2], 7.37 in assay [3] and 8.23 in assay [4].

For `C[C@@H]1O[C@H](C[N+](C)(C)C)CS1` (mixture of isomers) [listing 2 of 2 here], in assay [5], the ER worked out at 170.

Consider `C[C@@H]1O[C@H](C[N+](C)(C)C)CC1=O` (racemic) [listing 1 of 2 here], for which the EC50 is 0.0129 µM in assay [1], 0.0024 µM in assay [3] and 0.001 µM in assay [4].

On to `C[C@H]1OC[C@@H](C[N+](C)(C)C)O1` (racemic) [listing 1 of 2 here], for which the “-Log EC50” value stood at 7.58 in assay [1], 6.91 in assay [2], 8.02 in assay [3] and 8.38 in assay [4].

For the molecule `C[C@H]1CC[C@@H](C[N+](C)(C)C)O1` (racemic), the “-Log EC50” value in assay [1] was determined as 6.19; in assay [2], 5.62; in assay [3], 5.88; in assay [4], 6.87.

On to `CN1OC(C[N+](C)(C)C)CC1=O` (racemic) [listing 1 of 2 here], for which the “-Log EC50” value in assay [1] came to 7.13; in assay [2] it was 6.44; in assay [3], 7.62; in assay [4], 7.95.

With `C=C1C[C@@H](C[N+](C)(C)C)O[C@H]1C` (racemic), the EC50 in assay [1] is 0.166 µM; in assay [2], 0.741 µM; in assay [3], 0.794 µM; in assay [4], 0.0417 µM.

Take `CN1OC(C[N+](C)(C)C)CC1=O` (racemic) [listing 2 of 2 here]: in assay [5], the ER came out at 2.5.

Take `C[C@@H]1O[C@H](C[N+](C)(C)C)CC1=O` (racemic) [listing 2 of 2 here]: the ER in assay [5] amounted to 3.1.

As for `C[C@H]1OC[C@@H](C[N+](C)(C)C)O1` (racemic) [listing 2 of 2 here], the ER in assay [5] was determined as 59.

On to `CN1OC(C[N+](C)(C)C)CC1=O` (stereo in doubt; 4) [listing 1 of 2 here], for which the EC50 in assay [1] is 0.0741 µM; in assay [2], 0.363 µM; in assay [3], 0.024 µM; in assay [4], 0.0112 µM.

In the case of `CN1OC(C[N+](C)(C)C)CC1=O` (stereo in doubt; 4) [listing 2 of 2 here], in assay [5], the ER turned out to be 2.5.

For `C[C@@H]1O[C@H](C[N+](C)(C)C)C[C@H]1O` [MUSCARINE], the EC50 in assay [1] is 0.155 µM; in assay [2], 0.575 µM; in assay [3] it was 0.0589 µM; in assay [4] it was 0.0316 µM. In addition, the ER in assay [5] was 331.
